According to patent publication US20060281763A1, “Carboxamide inhibitors of TGFbeta” (priority 2005, published 2006):

Biological target: T1, TGFβ R1 (Homo sapiens, UniProt P36897)
T1 sequence (P36897 34-503): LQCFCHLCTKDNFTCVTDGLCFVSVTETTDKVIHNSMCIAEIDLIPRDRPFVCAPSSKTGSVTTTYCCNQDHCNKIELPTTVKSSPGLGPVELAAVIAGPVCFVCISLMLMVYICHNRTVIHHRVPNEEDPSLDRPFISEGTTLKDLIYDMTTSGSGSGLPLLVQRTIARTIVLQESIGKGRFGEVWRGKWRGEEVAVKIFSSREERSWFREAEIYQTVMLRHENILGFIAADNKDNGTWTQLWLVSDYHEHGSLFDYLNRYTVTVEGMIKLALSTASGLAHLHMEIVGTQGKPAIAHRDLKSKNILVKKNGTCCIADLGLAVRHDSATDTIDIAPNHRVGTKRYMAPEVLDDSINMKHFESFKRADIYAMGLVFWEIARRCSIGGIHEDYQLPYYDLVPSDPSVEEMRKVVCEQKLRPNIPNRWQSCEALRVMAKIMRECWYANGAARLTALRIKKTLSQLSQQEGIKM
Experiment: TGFβ R1 autophosphorylation protocol (33P-ATP, phosphocellulose filter plate)
Type: biochemical
Settings: 10 uM ATP, 170 nM TGFβ R1, 20 minutes at room temperature, read-out: IC50 for Kinase Inhibition
How it was run: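 Radiometric autophosphorylation: 170 nM enzyme with compound (≤1% DMSO), 10 uM ATP plus γ-33P-ATP, […] in 20 mM MOPS pH 7, 20 min at room temperature. Reaction stopped on phosphocellulose filter, washed with H3PO4 and ethanol, counted by scintillation.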

Row | IC50 | SMILES
1 | 23 nM | COc1cnc(-c2cc(Cl)ccc2F)nc1Nc1ccncc1C(=O)NCCCN1CCC[C@H]1C(N)=O [Compound 123, N-[3-(2-Carbamoyl-pyrrolidin-1-yl)-propyl]-4-[2-(5-chloro-2-fluoro-phenyl)-5-methoxy-pyrimidin-4-ylamino]-nicotinamide]
2 | 42 nM | COC[C@H]1OC(CCNCCCNC(=O)c2cnccc2Nc2nc(-c3cc(Cl)ccc3F)ncc2OC)[C@H](OC)[C@@H](OC)[C@@H]1OC (stereo partly shown) [Compound 124, 4-[2-(5-Chloro-2-fluoro-phenyl)-5-methoxy-pyrimidin-4-ylamino]-N-{3-[2-(3,4,5-trimethoxy-6-methoxymethyl-tetrahydro-pyran-2-yl)-ethylamino]-propyl}-nicotinamide]
3 | 32 nM | COC[C@@H]1OC(CCNCCCNC(=O)c2cnccc2Nc2nc(-c3cc(Cl)ccc3F)ncc2OC)[C@@H](OC)[C@H](OC)[C@H]1OC (stereo partly shown) [Compound 125, 4-[2-(5-Chloro-2-fluoro-phenyl)-5-methoxy-pyrimidin-4-ylamino]-N-{3-[2-(3,4,5-trimethoxy-6-methoxymethyl-tetrahydro-pyran-2-yl)-ethylamino]-propyl}-nicotinamide]
4 | 50 nM | COC[C@H]1OC(CCNCCCNC(=O)c2cnccc2Nc2nc(-c3cc(Cl)ccc3F)ncc2OC)[C@H](OC)[C@@H](OC)[C@H]1OC (stereo partly shown) [Compound 126]
5 | 63 nM | COc1cnc(-c2cc(Cl)ccc2F)nc1Nc1ccncc1C(=O)NCCCNCCC1O[C@H](CO)[C@@H](O)[C@H](O)[C@H]1O (stereo partly shown) [Compound 127, 4-[2-(5-Chloro-2-fluoro-phenyl)-5-methoxy-pyrimidin-4-ylamino]-N-{3-[2-(3,4,5-trihydroxy-6-hydroxymethyl-tetrahydro-pyran-2-yl)-ethylamino]-propyl}-nicotinamide]
6 | 8 nM | COc1cnc(-c2cc(Cl)ccc2F)nc1Nc1ccncc1C(=O)N[C@H]1CCNC1 [Compound 128, 4-[2-(5-Chloro-2-fluoro-phenyl)-5-methoxy-pyrimidin-4-ylamino]-N-pyrrolidin-3-yl-nicotinamide]
7 | 59 nM | COc1cnc(-c2cc(Cl)ccc2F)nc1Nc1ccncc1C(=O)NOCC1CC1 [Compound 129, 4-[2-(5-Chloro-2-fluoro-phenyl)-5-methoxy-pyrimidin-4-ylamino]-N-cyclopropylmethoxy-nicotinamide]
8 | 38 nM | COc1cnc(-c2cc(Cl)ccc2F)nc1Nc1ccncc1C(=O)NCC(C)(C)N [Compound 130, N-(2-Amino-2-methyl-propyl)-4-[2-(5-chloro-2-fluoro-phenyl)-5-methoxy-pyrimidin-4-ylamino]-nicotioamide]
9 | 21 nM | COc1cnc(-c2cc(Cl)ccc2F)nc1Nc1ccncc1C(=O)NCCCNC(C)C [Compound 131, 4-[2-(5-Chloro-2-fluoro-phenyl)-5-methoxy-pyrimidin-4-ylamino]-N-(3-isoopropyl-amino-propyl)-nicotinamide]
10 | 327 nM | COc1cnc(-c2cc(Cl)ccc2F)nc1Nc1ccncc1C(=O)NCCCNC(=O)COC1O[C@H](COC(C)=O)[C@@H](OC(C)=O)[C@H](OC(C)=O)[C@H]1OC(C)=O (stereo partly shown) [Compound 133]
11 | 12 nM | COc1cnc(-c2cc(Cl)ccc2F)nc1Nc1ccncc1C(=O)NCCCNCCOC1O[C@H](CO)[C@@H](O)[C@H](O)[C@H]1O (stereo partly shown) [Compound 134, 4-[2-(5-Chloro-2-fluoro-phenyl)-5-methoxy-pyrimidin-4-ylamino]-N-{3-[2-(3,4,5-trihydroxy-6-hydroxymethyl-tetrahydro-pyran-2-yloxy)-ethylamino]-propyl}-nicotinamide]
12 | 7 nM | COc1cnc(-c2cc(Cl)ccc2F)nc1Nc1ccncc1C(=O)NCCNCCC1O[C@H](CO)[C@@H](O)[C@H](O)[C@H]1O (stereo partly shown) [Compound 136, 4-[2-(5-Chloro-2-fluoro-phenyl)-5-methoxy-pyrimidin-4-ylamino]-N-{2-[2-(3,4,5-trihydroxy-6-hydroxymethyl-tetrahydro-pyran-2-yl)-ethylamino]-ethyl}-nicotinamide]
13 | 18 nM | COc1cnc(-c2cc(Cl)ccc2F)nc1Nc1ccncc1C(=O)NC1CCN(CCC2O[C@H](CO)[C@@H](O)[C@H](O)[C@H]2O)CC1 (stereo partly shown) [Compound 137, 4-[2-(5-Chloro-2-fluoro-phenyl)-5-methoxy-pyrimidin-4-ylamino]-N-{1-[2-(3,4,5-trihydroxy-6-hydroxymethyl-tetrahydro-pyran-2-yl)-ethyl]-piperidin-4-yl}-nicotinamide]
14 | 24 nM | COc1cnc(-c2cc(Cl)ccc2F)nc1Nc1ccncc1C(=O)N[C@@H]1CCNC1 [Compound 138, 4-[2-(5-Chloro-2-fluoro-phenyl)-5-methoxy-pyrimidin-4-ylamino]-N-pyrrolidin-3-yl-nicotinamide]
15 | 7 nM | COc1cnc(-c2cc(Cl)ccc2F)nc1Nc1ccncc1C(=O)NCCCNCCO[C@H]1O[C@H](CO)[C@H](O)[C@H](O)[C@H]1O [Compound 139, 4-[2-(5-Chloro-2-fluoro-phenyl)-5-methoxy-pyrimidin-4-ylamino]-N-{3-[2-(3,4,5-trihydroxy-6-hydroxymethyl-tetrahydro-pyran-2-yloxy)-ethylamino]-propyl}-nicotinamide]
16 | 44 nM | COc1cnc(-c2cc(Cl)ccc2F)nc1Nc1ccncc1C(=O)NCCCNC(=O)CO[C@H]1O[C@H](CO)[C@H](O)[C@H](O)[C@H]1O [Compound 140, 4-[2-(5-Chloro-2-fluoro-phenyl)-5-methoxy-pyrimidin-4-ylamino]-N-{3-[2-(3,4,5-trihydroxy-6-hydroxymethyl-tetrahydro-pyran-2-yloxy)-acetylamino]-propyl}-nicotinamide]
17 | 38 nM | COc1cnc(-c2cc(Cl)ccc2F)nc1Nc1ccncc1C(=O)NC1CC1CO (stereo not shown) [Compound 141, 4-[2-(5-Chloro-2-fluoro-phenyl)-5-methoxy-pyrimidin-4-ylamino]-N-(2-hydroxymethyl-cyclopropyl)-nicotinamide]
18 | 10 nM | COc1cnc(-c2cc(Cl)ccc2F)nc1Nc1ccncc1C(=O)NCCNCCOC1O[C@H](CO)[C@@H](O)[C@H](O)[C@H]1O (stereo partly shown) [Compound 144, 4-[2-(5-chloro-2-fluoro-phenyl)-5-methoxy-pyrimidin-4-ylamino]-N-{2-[2-(3,4,5-trihydroxy-6-hydroxymethyl-tetrahydro-pyran-2-yloxy)-ethylamino]-ethyl)-nicotinamide]
19 | 53 nM | COc1cnc(-c2cc(Cl)ccc2F)nc1Nc1ccncc1C(=O)NCCNC(=O)COC1O[C@H](CO)[C@@H](O)[C@H](O)[C@H]1O (stereo partly shown) [Compound 145, 4-[2-(5-Chloro-2-fluoro-phenyl)-5-methoxy-pyrimidin-4-ylamino]-N-{2-[2-(3,4,5-trihydroxy-6-hydroxymethyl-tetrahydro-pyran-2-yloxy)-acetylamino]-ethyl)-nicotinamide]
20 | 102 nM | COc1cnc(-c2cc(Cl)ccc2F)nc1Nc1ccncc1C(=O)NCCCNC(=O)CC1O[C@H](CO)[C@@H](O)[C@H](O)[C@H]1O (stereo partly shown) [Compound 146]
21 | 125 nM | COc1cnc(-c2cc(Cl)ccc2F)nc1Nc1ccncc1C(=O)NCCNC(=O)CC1O[C@H](CO)[C@@H](O)[C@H](O)[C@H]1O (stereo partly shown) [Compound 147, 4-[2-(5-Chloro-2-fluoro-phenyl)-5-methoxy-pyrimidin-4-ylamino]-N-{2-[2-(3,4,5-trihydroxy-6-hydroxymethyl-tetrahydro-pyran-2-yl)-acatylamino]-ethyl}-nicotinamide]
22 | 207 nM | COc1cnc(-c2cc(Cl)ccc2F)nc1Nc1ccncc1C(=O)NC1CCN(C(=O)CC2O[C@H](CO)[C@@H](O)[C@H](O)[C@H]2O)CC1 (stereo partly shown) [Compound 148, 4-[2-(5-Chloro-2-fluoro-phenyl)-5-methoxy-pyrimidin-4-ylamino]-N-{1-[2-(3,4,5-trihydroxy-6-hydroxymethyl-tetrahydro-pyran-2-yl)-acetyl]-piperidin-4-yl}-nicotinamide]
23 | 47 nM | COc1cnc(-c2cc(Cl)ccc2F)nc1Nc1ccncc1C(=O)NCCCN(C(=O)CC1O[C@H](CO)[C@@H](O)[C@H](O)[C@H]1O)C(C)C (stereo partly shown) [Compound 149, 4-[2-(5-Chloro-2-fluoro-phenyl)-5-methoxy-pyrimidin-4-ylamino]-N-(3-[isopropyl-[2-(3,4,5-trihydroxy-6-hydroxymethyl-tetrahydro-pyran-2-yl)-acetyl]-amino]-propyl)-nicotinamide]

Row | SMILES | IC50
24 | COc1cnc(-c2cc(Cl)ccc2F)nc1Nc1ccncc1C(=O)NCCNCCOC1O[C@H](COC(C)=O)[C@@H](OC(C)=O)[C@H](OC(C)=O)[C@H]1OC(C)=O (stereo partly shown) [Compound 142, Acetic acid 3,4,5-triacetoxy-6-(2-[2-({4-[2-(5-chloro-2-fluoro-phenyl)-5-methoxy-pyrimidin-4-ylamino]-pyridine-3-carbonyl]-amino)-ethylamino]-ethoxy}tetrahydro-pyran-2-ylmethyl ester] | 10 nM
25 | COc1cnc(-c2cc(Cl)ccc2F)nc1Nc1ccncc1C(=O)NCCNC(=O)COC1O[C@H](COC(C)=O)[C@@H](OC(C)=O)[C@H](OC(C)=O)[C@H]1OC(C)=O (stereo partly shown) [Compound 143, Acetic acid 3,4,5-triacetoxy-6-{[2-({4-[2-(5-chloro-2-fluoro-phenyl)-5-methoxy-pyrimidin-4-ylamino]-pyridine-3-carbonyl}-amino)-ethylcarbamoyl]-methoxy}-tetrahydro-pyran-2-ylmethyl ester] | 183 nM
